Results from EPA's ToxRefDB 2.

What was measured:
mouse [1] = conditions: Subchronic oral toxicity in rodents, b6c3f1, Gavage/Intubation, dose end: 94 day, group: systemic, systemic / hematology / erythrocyte (rbc) count differential / erythrocyte (rbc) + systemic / hematology / hematocrit (hct) / hematocrit (…
mouse [2] = conditions: Multigenerational reproductive toxicity study, cd1, Oral, Gavage/Intubation, dose end: 2 generation
mouse [3] = conditions: Multigenerational reproductive toxicity study, cd1, Oral, Gavage/Intubation, dose end: 1 generation
mouse [4] = conditions: Carcinogenicity, b6c3f1, Oral, Gavage/Intubation, dose end: 2 year, group: systemic
mouse [5] = conditions: Prenatal developmental toxicity study, swiss albino, Oral, Gavage/Intubation, dose end: 15 GD
mouse [6] = conditions: Other (NonGuideline or Guideline Not Listed), cd1, Oral, Gavage/Intubation, dose end: 2 year, group: cannot be grouped
mouse [7] = conditions: Subchronic oral toxicity in rodents, b6c3f1, Gavage/Intubation, dose end: 14 week, group: systemic
mouse [8] = conditions: Prenatal developmental toxicity study, cd1, Oral, Gavage/Intubation, dose end: 16 GD, group: developmental
[9] = group: offspring, systemic / in life observation / body weight / offspring (pup) weight
[10] = group: parental, systemic / in life observation / body weight / body weight + systemic / in life observation / body weight / dam weight + systemic / …
[11] = group: parental, systemic / in life observation / body weight / body weight + systemic / pathology gross / sperm measure / sperm morphology + systemic / …
[12] = group: reproductive, reproductive / offspring survival early / live fetuses / live fetuses
[13] = group: reproductive, reproductive / reproductive performance / reproductive performance other / NOS + reproductive / reproductive performance / gestational …
[14] = group: parental, systemic / hematology / leukocyte (wbc) count differential / leukocyte (wbc) + systemic / hematology / mean corpuscular (cell) volume (mcv…
[15] = group: parental, systemic / hematology / mean corpuscular (cell) volume (mcv) / mean corpuscular (cell) volume (mcv) + systemic / hematology / mean …
[16] = group: reproductive, reproductive / reproductive performance / pregnancy / pregnancy + reproductive / reproductive performance / resorptions / resorptions + …
[17] = systemic / hematology / erythrocyte (rbc) count differential / erythrocyte (rbc) + systemic / hematology / mean corpuscular (cell) volume (…
[18] = group: developmental, systemic / in life observation / body weight / fetal weight
[19] = group: maternal, systemic / in life observation / food consumption / food consumption
[20] = reproductive / reproductive performance / fertility / fertility + reproductive / offspring survival early / litter size / litter size + …
[21] = systemic / hematology / erythrocyte (rbc) count differential / erythrocyte (rbc) + systemic / hematology / hematocrit (hct) / hematocrit (…
[22] = developmental / developmental malformation / bone / supernumerary + systemic / in life observation / body weight / fetal weight
[23] = systemic / in life observation / body weight / fetal weight

`Cc1cn([C@H]2C[C@H](N=[N+]=[N-])[C@@H](CO)O2)c(=O)[nH]c1=O` [3'-Azido-3'-deoxythymidine] was tested, and the LEL (mouse [1]) was 100 mg/kg/day, the LOAEL (mouse [1]) was > 400 mg/kg/day and the NEL (mouse [1]) was < 100 mg/kg/day. The NOAEL (mouse [1]) was ≥ 400 mg/kg/day, the LEL (mouse [2]; [9]) was 200 mg/kg/day and the LOAEL (mouse [2]; [9]) was > 200 mg/kg/day. The NEL (mouse [2]; [9]) was 100 mg/kg/day, the NOAEL (mouse [2]; [9]) was ≥ 200 mg/kg/day and the LOAEL (mouse [2]; [10]) was > 200 mg/kg/day. For the same compound, the NOAEL (mouse [2]; [10]) was ≥ 200 mg/kg/day, the LEL (mouse [2]; [11]) was 50 mg/kg/day and the NEL (mouse [2]; [11]) was < 50 mg/kg/day. The LEL (mouse [2]; [12]) was 50 mg/kg/day, the NEL (mouse [2]; [12]) was < 50 mg/kg/day and the LOAEL (mouse [2]; [13]) was > 200 mg/kg/day. The NOAEL (mouse [2]; [13]) was ≥ 200 mg/kg/day, the LOAEL (mouse [3]; [14]) was > 400 mg/kg/day and the NOAEL (mouse [3]; [14]) was ≥ 400 mg/kg/day. For the same compound, the LEL (mouse [3]; [15]) was 100 mg/kg/day, the NEL (mouse [3]; [15]) was < 100 mg/kg/day and the LEL (mouse [3]; group: reproductive, reproductive / reproductive performance / pregnancy / pregnancy) was 200 mg/kg/day. The NEL (mouse [3]; group: reproductive, reproductive / reproductive performance / pregnancy / pregnancy + reproductive / reproductive performance / resorptions / resorptions) was 100 mg/kg/day, the LOAEL (mouse [3]; [16]) was > 400 mg/kg/day and the NOAEL (mouse [3]; [16]) was ≥ 400 mg/kg/day. For the same compound, the LEL (mouse [4]; [17]) was 30 mg/kg/day, the NEL (mouse [4]; [17]) was < 30 mg/kg/day and the LOAEL (mouse [4]; systemic / pathology microscopic / vagina / hyperplasia) was 120 mg/kg/day. For the same compound, the NOAEL (mouse [4]; systemic / pathology microscopic / vagina / hyperplasia + systemic / pathology microscopic / liver / adenoma/carcinoma combined + systemic…) was 60 mg/kg/day, the LEL (mouse [5]; [18]) was 100 mg/kg/day and the LOAEL (mouse [5]; [18]) was > 400 mg/kg/day. The NEL (mouse [5]; [18]) was < 100 mg/kg/day, the NOAEL (mouse [5]; [18]) was ≥ 400 mg/kg/day and the LEL (mouse [5]; [19]) was 400 mg/kg/day. The LOAEL (mouse [5]; [19]) was > 400 mg/kg/day, the NEL (mouse [5]; [19]) was 200 mg/kg/day and the NOAEL (mouse [5]; [19]) was ≥ 400 mg/kg/day. The NEL (mouse [6]; reproductive / reproductive performance / fertility / fertility) was 100 mg/kg/day, the LEL (mouse [6]; [20]) was 200 mg/kg/day and the LOAEL (mouse [6]; [20]) was > 300 mg/kg/day. The NOAEL (mouse [6]; [20]) was ≥ 300 mg/kg/day, the LEL (mouse [7]; [21]) was 50 mg/kg/day and the NEL (mouse [7]; [21]) was < 50 mg/kg/day. For the same compound, the LOAEL (mouse [7]; systemic / in life observation / body weight / body weight gain + systemic / pathology microscopic / bone marrow / atrophy) was 800 mg/kg/day, the NOAEL (mouse [7]; systemic / in life observation / body weight / body weight gain + systemic / pathology microscopic / bone marrow / atrophy + systemic / …) was 200 mg/kg/day and the LOAEL (mouse [8]; [22]) was > 400 mg/kg/day. The NOAEL (mouse [8]; [22]) was ≥ 400 mg/kg/day, the LEL (mouse [8]; [23]) was 100 mg/kg/day and the NEL (mouse [8]; [23]) was < 100 mg/kg/day.
